In patent publication US4215110A, “Method of treating hypertension” (Merck & Co., Inc., priority 1978, dated 1980):

Tested on: spontaneously hypertensive (SH) rats
Test: antihypertensive activity test in spontaneously hypertensive (SH) rats
Type: in vivo, rat
Settings: administered intraperitoneally
Procedure: The present tripeptides have antihypertensive activity. This antihypertensive activity was determined using a test procedure which involved administration of representative compounds to spontaneously hypertensive (SH) rats.

NC(=O)[C@@H]1CCCN1C(=O)[C@H](Cc1c[nH]cn1)NC(=O)[C@@H]1CCC(=O)N1 [TRH, L-pyroglutamyl-L-histidyl-L-proline-amide]
antihypertensive activity: significant antihypertensive activity
